In ChEMBL document CHEMBL3826970, “Design, synthesis, anti-tumor activity, and molecular modeling of quinazoline and pyrido[2,3-d]pyrimidine derivatives targeting epidermal growth factor receptor” (Eur J Med Chem, 2016) one finds IC50 and inhibition data, which are given here for 18 compounds.

Molecules are shown by their SMILES.

One experiment concerns SK-BR-3. Kind of experiment: cells. The class given is functional, cell-based. Particulars: Homo sapiens, SK-BR-3, 72 h.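 Further: antiproliferative effect determined with an MTT read-out.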
For another experiment, the system named is A549. Kind of experiment: cells. The class given is functional, cell-based. Particulars: Homo sapiens, A549, 72 h.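 Further: antiproliferative effect read out by MTT assay.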
For a further experiment, the system named is MCF7. Kind of experiment: cells. The experiment is classed as functional, cell-based. Particulars: Homo sapiens, MCF7, 72 h.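 Further: antiproliferative effect quantified with an MTT readout.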
Experiment [1] addresses T1, Epidermal growth factor receptor (Homo sapiens, UniProt P00533). The settings on record: at 1 µM.
Another experiment deals with MDA-MB-231. Kind of experiment: cells. The experiment is classed as functional, cell-based. The settings on record: Homo sapiens, MDA-MB-231, 72 h.
Experiment [2] in a line: Antiproliferative activity against human BT474 cells after 72 hrs by MTT assay. The experiment is classed as functional, cell-based. Particulars: BT-474, 72 h.
Experiment [3] has as its target T1, Epidermal growth factor receptor.
Description: Inhibition of cytoplasmic GST-tagged human recombinant EGFR expressed in baculovirus system by z-lyte assay
In experiment [4] the target is Epidermal growth factor receptor (Homo sapiens, UniProt P00533, L858R).
Description: Inhibition of cytoplasmic GST-tagged human recombinant EGFR L858R mutant expressed in baculovirus system by z-lyte assay
Experiment [5] concerns the target Receptor tyrosine-protein kinase erbB-4 (Homo sapiens, UniProt Q15303). Kind of experiment: Inhibition of cytoplasmic GST-tagged human ErbB4 expressed in baculovirus system by z-lyte assay.
The target in experiment [6] is Epidermal growth factor receptor (Homo sapiens, UniProt P00533, L858R/T790M). Kind of experiment: Inhibition of cytoplasmic GST-tagged human recombinant EGFR L858R/T790M double mutant (668-1210 residues) expressed in baculovirus system by z-lyte assay.
The target in experiment [7] is Receptor tyrosine-protein kinase erbB-2 (Homo sapiens, UniProt P04626). Kind of experiment: Inhibition of cytoplasmic His-tagged human ErbB2 expressed in baculovirus system by z-lyte assay.
Sequence of Receptor tyrosine-protein kinase erbB-2 (P04626 whole entry): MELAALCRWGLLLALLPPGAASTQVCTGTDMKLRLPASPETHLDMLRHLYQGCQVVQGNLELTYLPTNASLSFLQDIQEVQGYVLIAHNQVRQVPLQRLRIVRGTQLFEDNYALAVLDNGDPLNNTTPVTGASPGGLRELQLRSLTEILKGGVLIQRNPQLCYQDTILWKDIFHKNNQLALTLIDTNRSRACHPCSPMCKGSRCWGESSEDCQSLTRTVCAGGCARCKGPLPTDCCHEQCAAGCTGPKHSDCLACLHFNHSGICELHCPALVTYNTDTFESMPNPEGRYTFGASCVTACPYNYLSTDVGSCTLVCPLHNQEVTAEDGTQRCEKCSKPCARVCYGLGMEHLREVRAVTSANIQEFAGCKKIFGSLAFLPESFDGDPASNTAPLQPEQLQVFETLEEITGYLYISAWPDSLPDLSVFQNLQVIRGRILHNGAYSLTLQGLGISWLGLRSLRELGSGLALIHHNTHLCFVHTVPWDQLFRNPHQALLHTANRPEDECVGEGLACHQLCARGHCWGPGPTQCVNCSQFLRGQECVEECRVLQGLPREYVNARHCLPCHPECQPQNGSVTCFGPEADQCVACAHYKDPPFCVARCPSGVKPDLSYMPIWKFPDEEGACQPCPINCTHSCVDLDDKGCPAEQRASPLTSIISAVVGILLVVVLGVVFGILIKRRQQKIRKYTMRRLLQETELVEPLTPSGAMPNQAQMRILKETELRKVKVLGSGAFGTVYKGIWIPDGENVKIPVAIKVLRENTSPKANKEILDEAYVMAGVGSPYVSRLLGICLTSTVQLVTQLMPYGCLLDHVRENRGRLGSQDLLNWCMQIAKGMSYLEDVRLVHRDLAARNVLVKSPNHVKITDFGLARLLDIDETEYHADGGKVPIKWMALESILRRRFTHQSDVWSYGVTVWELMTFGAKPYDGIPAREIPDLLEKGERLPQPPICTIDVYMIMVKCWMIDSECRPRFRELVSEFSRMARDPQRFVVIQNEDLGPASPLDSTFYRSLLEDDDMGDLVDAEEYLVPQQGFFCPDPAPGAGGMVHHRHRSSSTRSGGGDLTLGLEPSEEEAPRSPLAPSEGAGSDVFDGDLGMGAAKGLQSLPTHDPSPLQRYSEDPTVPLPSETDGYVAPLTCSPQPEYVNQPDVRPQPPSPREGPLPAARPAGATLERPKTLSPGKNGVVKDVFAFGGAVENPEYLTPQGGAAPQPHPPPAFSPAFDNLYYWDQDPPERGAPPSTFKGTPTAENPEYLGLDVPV

Sequence of Receptor tyrosine-protein kinase erbB-4 (Q15303 whole entry, the tested form may be a part): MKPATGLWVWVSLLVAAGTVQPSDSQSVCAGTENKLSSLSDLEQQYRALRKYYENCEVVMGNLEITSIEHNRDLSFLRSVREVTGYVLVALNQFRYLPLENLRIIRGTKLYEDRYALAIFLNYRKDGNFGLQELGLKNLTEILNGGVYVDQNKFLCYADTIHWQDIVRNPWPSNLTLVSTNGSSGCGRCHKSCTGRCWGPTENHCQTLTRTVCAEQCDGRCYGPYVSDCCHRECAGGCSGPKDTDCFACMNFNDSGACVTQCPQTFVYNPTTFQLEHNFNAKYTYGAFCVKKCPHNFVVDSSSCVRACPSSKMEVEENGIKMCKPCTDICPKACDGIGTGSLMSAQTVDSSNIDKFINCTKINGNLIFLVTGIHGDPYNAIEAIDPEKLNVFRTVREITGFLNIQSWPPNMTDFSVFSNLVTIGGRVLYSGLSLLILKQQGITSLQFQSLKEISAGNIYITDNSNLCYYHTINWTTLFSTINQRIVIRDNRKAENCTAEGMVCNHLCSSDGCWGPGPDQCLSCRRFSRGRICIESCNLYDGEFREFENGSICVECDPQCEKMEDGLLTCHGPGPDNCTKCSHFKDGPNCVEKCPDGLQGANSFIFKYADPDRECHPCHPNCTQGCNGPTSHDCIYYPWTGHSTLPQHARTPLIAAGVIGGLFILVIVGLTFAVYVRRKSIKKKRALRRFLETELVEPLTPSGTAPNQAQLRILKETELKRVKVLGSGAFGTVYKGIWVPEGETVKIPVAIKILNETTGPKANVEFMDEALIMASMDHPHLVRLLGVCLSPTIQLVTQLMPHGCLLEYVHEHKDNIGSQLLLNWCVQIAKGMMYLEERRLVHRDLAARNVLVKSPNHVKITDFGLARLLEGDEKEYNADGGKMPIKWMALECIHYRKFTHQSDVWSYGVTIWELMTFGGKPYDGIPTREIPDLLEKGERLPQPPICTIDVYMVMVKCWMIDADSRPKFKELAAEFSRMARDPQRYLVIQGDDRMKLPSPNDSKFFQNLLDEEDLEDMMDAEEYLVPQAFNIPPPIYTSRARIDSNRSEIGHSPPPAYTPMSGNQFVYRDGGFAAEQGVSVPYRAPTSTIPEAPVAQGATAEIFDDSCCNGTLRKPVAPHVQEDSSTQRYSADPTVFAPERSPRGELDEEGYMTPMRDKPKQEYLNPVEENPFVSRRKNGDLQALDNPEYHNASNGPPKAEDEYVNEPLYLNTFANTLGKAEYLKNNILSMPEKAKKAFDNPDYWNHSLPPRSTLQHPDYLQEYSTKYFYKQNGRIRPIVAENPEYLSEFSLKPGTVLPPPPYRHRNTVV
T1 sequence (P00533 whole entry): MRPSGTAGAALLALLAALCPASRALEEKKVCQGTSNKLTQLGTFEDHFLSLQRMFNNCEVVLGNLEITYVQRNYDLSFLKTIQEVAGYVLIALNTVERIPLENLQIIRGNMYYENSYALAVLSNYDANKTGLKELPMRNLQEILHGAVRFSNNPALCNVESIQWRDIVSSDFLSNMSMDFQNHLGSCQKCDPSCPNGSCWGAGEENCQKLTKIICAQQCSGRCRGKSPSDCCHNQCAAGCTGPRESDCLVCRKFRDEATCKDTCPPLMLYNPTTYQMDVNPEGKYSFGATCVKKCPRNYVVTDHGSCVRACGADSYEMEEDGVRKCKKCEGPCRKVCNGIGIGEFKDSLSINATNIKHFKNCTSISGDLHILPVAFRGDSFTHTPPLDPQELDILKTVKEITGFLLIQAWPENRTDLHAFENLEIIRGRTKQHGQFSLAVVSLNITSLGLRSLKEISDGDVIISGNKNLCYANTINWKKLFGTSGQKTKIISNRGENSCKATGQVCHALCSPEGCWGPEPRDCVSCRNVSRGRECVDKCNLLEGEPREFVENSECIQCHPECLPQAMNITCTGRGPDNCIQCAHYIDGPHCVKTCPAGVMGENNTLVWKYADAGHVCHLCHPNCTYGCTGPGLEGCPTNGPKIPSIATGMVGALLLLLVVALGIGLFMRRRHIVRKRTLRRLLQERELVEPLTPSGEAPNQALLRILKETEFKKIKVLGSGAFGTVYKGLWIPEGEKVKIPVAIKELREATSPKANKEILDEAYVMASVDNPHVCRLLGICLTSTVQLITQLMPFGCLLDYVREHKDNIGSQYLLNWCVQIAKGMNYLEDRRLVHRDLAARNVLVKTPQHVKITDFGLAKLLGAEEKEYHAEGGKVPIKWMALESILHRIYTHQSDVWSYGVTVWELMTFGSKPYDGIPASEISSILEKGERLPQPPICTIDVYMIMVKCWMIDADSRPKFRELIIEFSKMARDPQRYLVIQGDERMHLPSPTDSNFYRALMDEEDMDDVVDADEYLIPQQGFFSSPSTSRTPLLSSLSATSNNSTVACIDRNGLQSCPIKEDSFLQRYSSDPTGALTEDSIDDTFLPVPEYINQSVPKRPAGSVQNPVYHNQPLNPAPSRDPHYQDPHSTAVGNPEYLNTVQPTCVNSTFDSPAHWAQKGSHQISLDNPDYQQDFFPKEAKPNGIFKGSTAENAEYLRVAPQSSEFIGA
Sequence of Epidermal growth factor receptor (Homo sapiens, UniProt P00533, L858R) (P00533 25-1210 L858R limits assumed): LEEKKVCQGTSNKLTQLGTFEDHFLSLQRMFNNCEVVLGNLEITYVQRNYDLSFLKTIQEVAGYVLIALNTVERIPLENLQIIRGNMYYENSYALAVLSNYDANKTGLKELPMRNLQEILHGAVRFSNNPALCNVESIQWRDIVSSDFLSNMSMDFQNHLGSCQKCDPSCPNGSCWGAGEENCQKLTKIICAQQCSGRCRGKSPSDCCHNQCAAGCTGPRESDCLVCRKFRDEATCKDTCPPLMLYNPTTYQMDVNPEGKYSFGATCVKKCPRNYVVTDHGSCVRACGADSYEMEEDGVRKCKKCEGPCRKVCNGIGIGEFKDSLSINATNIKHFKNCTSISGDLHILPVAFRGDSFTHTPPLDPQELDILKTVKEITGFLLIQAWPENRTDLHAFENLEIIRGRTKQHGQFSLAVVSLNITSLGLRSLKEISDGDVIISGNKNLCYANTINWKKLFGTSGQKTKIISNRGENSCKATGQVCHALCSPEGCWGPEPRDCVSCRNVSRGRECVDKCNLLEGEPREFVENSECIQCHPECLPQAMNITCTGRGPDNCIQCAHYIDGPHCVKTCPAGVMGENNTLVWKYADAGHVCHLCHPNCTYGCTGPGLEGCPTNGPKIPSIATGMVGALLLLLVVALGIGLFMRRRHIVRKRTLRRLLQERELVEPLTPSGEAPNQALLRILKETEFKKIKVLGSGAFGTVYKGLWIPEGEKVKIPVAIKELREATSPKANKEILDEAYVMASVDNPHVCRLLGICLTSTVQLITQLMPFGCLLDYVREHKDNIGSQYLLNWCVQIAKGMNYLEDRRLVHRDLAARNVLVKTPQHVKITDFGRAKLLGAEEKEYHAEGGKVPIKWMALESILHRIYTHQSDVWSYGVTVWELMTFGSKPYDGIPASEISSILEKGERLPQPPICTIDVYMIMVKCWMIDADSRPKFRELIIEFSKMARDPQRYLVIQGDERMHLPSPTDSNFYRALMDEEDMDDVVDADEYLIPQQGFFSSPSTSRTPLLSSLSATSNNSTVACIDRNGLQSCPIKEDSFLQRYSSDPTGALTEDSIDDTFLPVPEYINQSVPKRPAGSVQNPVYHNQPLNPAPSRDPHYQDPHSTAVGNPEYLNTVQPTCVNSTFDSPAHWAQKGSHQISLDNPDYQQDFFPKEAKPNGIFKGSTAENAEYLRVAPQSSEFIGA
Description for A549: Antiproliferative activity against human A549 cells after 72 hrs by MTT assay
Description for SK-BR-3: Antiproliferative activity against human SK-BR-3 cells after 72 hrs by MTT assay

Consider `CC(Nc1nc(N)nc2ccc(-c3cnn(C4CCNCC4)c3)cc12)c1c(Cl)ccc(F)c1Cl` (stereo not drawn), for which the IC50 – broadly, the concentration that inhibits the measured activity by half – in the experiment on SK-BR-3 was 1.58 µM; with A549, 8.8 µM; in the experiment on MCF7, 2.23 µM; with MDA-MB-231 it was 4.48 µM; in experiment [2], 5.1 µM. Moreover, in experiment [1], the inhibition (as a rule, the change of the read-out against control, counted positive when it falls) was determined as 17%.

As to `CC(Nc1nc(N)nc2ccc(-c3cnn(C)c3)cc12)c1c(Cl)ccc(F)c1Cl` (stereo not drawn), the IC50 is 7.14 µM with SK-BR-3; greater than 100 µM in the experiment with A549; 2.87 µM with MCF7; 7.96 µM with MDA-MB-231; 7.12 µM in experiment [2]. The inhibition in experiment [1] is 12%.

For `Cn1cc(-c2cnc3ncnc(NCc4cccc([N+](=O)[O-])c4)c3c2)cn1`, the IC50 (in the experiment with SK-BR-3; in the experiment with A549; with MCF7; in the experiment on MDA-MB-231; in experiment [2]) was greater than 100 µM each time. In addition, the inhibition in [1] came out at 30%.

`COc1cccc(CNc2ncnc3ncc(-c4cnn(C)c4)cc23)c1`: the IC50 (with SK-BR-3; in the experiment with A549; with MCF7; with MDA-MB-231; in experiment [2]) was greater than 100 µM throughout. The inhibition in [1] was determined as 18%.

Turning to `Cn1cc(-c2ccc3ncnc(Nc4ccc5ncccc5c4)c3c2)cn1`, the IC50 in [3] stood at 0.0441 µM; in the experiment with SK-BR-3, 0.064 µM; in experiment [4] it was 0.108 µM; in the experiment with A549 it was 1.38 µM; in experiment [5] it was 0.93 µM; in the experiment on MCF7, 0.49 µM. Also, the IC50 in the experiment with MDA-MB-231 is 26.3 µM; in [6], greater than 1 µM; in experiment [7] it was 0.874 µM; in experiment [2] it was 10.9 µM. The inhibition in experiment [1] worked out at 101%.

For the compound `c1cnc2ccc(Nc3ncnc4ccc(-c5cnn(C6CCNCC6)c5)cc34)cc2c1`, the IC50 in [3] amounted to 0.0282 µM; in the experiment on SK-BR-3, 2.66 µM; in experiment [4], 0.035 µM; with A549, 32 µM; in experiment [5], 1.1 µM; in the experiment on MCF7, 61.9 µM. The IC50 in the experiment on MDA-MB-231 is 30.3 µM; in experiment [6], greater than 1 µM; in experiment [7], 1.35 µM; in [2], 12.8 µM. The inhibition in experiment [1] amounted to 96%.

In the case of `CC(Nc1ncnc2ncc(-c3cnn(C)c3)cc12)c1ccncc1` (stereo not drawn), the 50% inhibitory concentration (IC50) (with SK-BR-3; with A549; in the experiment with MCF7; in the experiment on MDA-MB-231; in [2]) was greater than 100 µM each time. The inhibition in experiment [1] was found to be 0%.

`CC(Nc1ncnc2ccc(-c3cnn(C4CCNCC4)c3)cc12)c1c(Cl)ccc(F)c1Cl` (stereo not drawn): the 50% inhibitory concentration (IC50) with SK-BR-3 stood at 4.39 µM; with A549 it was 7 µM; in the experiment with MCF7 it was 2.65 µM; in the experiment with MDA-MB-231, 12.6 µM; in experiment [2] it was 8.13 µM. Moreover, the inhibition in [1] was found to be 61%.

For the compound `Cn1cc(-c2ccc3ncnc(Nc4ccc(F)c(Cl)c4)c3c2)cn1`, the IC50 was 0.00297 µM in [3]; 3.1 µM in the experiment on SK-BR-3; 0.0035 µM in experiment [4]; greater than 100 µM with A549; 0.801 µM in experiment [5]; 52.2 µM in the experiment with MCF7. The IC50 in the experiment on MDA-MB-231 was 62.6 µM; in experiment [6], greater than 1 µM; in experiment [7], 0.676 µM; in experiment [2] it was 5.26 µM. In addition, in experiment [1], the inhibition is 101%.

Regarding `Fc1ccc(Nc2ncnc3ccc(-c4cnn(C5CCNCC5)c4)cc23)cc1Cl`, the IC50 in experiment [3] worked out at 0.0319 µM; in the experiment with SK-BR-3 it was 3.74 µM; in [4], 0.0391 µM; in the experiment on A549, 29.4 µM; in experiment [5], 1.6 µM; in the experiment with MCF7 it was 31.3 µM. Further, the IC50 in the experiment on MDA-MB-231 is 28.4 µM; in [6], greater than 1 µM; in [7] it was 1.2 µM; in [2], 15.2 µM. Moreover, in [1], the inhibition turned out to be 99%.

As to `Cn1cc(-c2ccc3ncnc(Oc4ccc5ncccc5c4)c3c2)cn1`, the IC50 with SK-BR-3 came to 14.4 µM; in the experiment with A549 it was 26.6 µM; with MCF7 it was 22 µM; in the experiment with MDA-MB-231, 16.5 µM; in experiment [2], 24.3 µM. Further, the inhibition in experiment [1] was determined as 43%.

Regarding `CC(Nc1ncnc2ncc(-c3cnn(C4CCNCC4)c3)cc12)c1c(Cl)ccc(F)c1Cl` (stereo not drawn), the IC50 amounted to 17.7 µM with SK-BR-3; 29.7 µM in the experiment on A549; 1.63 µM with MCF7; 7.11 µM in the experiment with MDA-MB-231; 13.5 µM in experiment [2]. For the same compound, the inhibition in experiment [1] amounted to 17%.

In the case of `COc1cccc(CNc2ncnc3ccc(-c4cnn(C)c4)cc23)c1`, the IC50 with SK-BR-3 was 36 µM; with A549, 48.9 µM; in the experiment with MCF7, 40 µM; with MDA-MB-231, 28.5 µM; in experiment [2], 30.4 µM. The inhibition in experiment [1] turned out to be 67%.

For `CC(Oc1ncnc2ccc(-c3cnn(C)c3)cc12)c1c(Cl)ccc(F)c1Cl` (stereo not drawn), the IC50 was found to be 27.2 µM in the experiment on SK-BR-3; 28.8 µM in the experiment with A549; 22.6 µM with MCF7; 30 µM in the experiment with MDA-MB-231; 45.6 µM in experiment [2]. In addition, in experiment [1], the inhibition was 11%.

Consider `CC(Oc1nc(N)nc2ccc(-c3cnn(C4CCNCC4)c3)cc12)c1c(Cl)ccc(F)c1Cl` (stereo not drawn), for which the IC50 in the experiment on SK-BR-3 was 7.12 µM; in the experiment on A549 it was 9.49 µM; in the experiment with MCF7, 1.24 µM; in the experiment with MDA-MB-231, 7 µM; in experiment [2], 3 µM. The inhibition in experiment [1] is 7%.

As to `C#Cc1cccc(Nc2ncnc3ccc(-c4cnn(C)c4)cc23)c1`, the IC50 in experiment [3] was 0.00358 µM; in the experiment on SK-BR-3, 5.87 µM; in experiment [4], 0.00425 µM; with A549 it was 9.86 µM; in [5], 0.782 µM; in the experiment with MCF7 it was 11.4 µM. In addition, the IC50 with MDA-MB-231 was 16.9 µM; in experiment [6], greater than 1 µM; in experiment [7], 0.59 µM; in [2], 5.68 µM. Further, in experiment [1], the inhibition worked out at 102%.

Turning to `CC(Oc1ncnc2ccc(-c3cnn(C4CCNCC4)c3)cc12)c1c(Cl)ccc(F)c1Cl` (stereo not drawn), the half-inhibitory concentration (IC50) in the experiment with SK-BR-3 was determined as 2.5 µM; in the experiment on A549 it was 6.75 µM; with MCF7, 2.67 µM; in the experiment on MDA-MB-231, 6.77 µM; in experiment [2], 4.14 µM. Also, the inhibition in experiment [1] turned out to be 52%.

With `CC(Nc1ncnc2ncc(-c3cnn(C)c3)cc12)c1c(Cl)ccc(F)c1Cl` (stereo not drawn), the IC50 (in the experiment on SK-BR-3; in the experiment with A549; in the experiment with MCF7; in the experiment on MDA-MB-231; in [2]) was greater than 100 µM each time. For the same compound, the inhibition in experiment [1] came out at 9%.
